Assay [1] has as its target T1, activated human C1 (Homo sapiens, UniProt P09871).
T1 construct: functional test of fluid-phase human C2 destruction in presence of C4
Kind of assay: Test Code 026 (C1 inhibitor). The note with it: serial twofold dilution assay; higher well number indicates higher activity. The class given is biochemical. The source says: (§1) An active inhibitor protects C2 from C1 and C4; (ii) Test Cod3 035 (3-C9 inhibitor)--This test determines the ability of the late components of human complement (C3-C9) to lyse EAC 142 in the presence of appropriate dilutions of the test compound. An active inhibitor protects EAC 142 from lysis by human C3-C9; (iii) Test Code 036 (C-Shunt inhibitor)--In this test human erythrocytes rendered fragile are lysed in autologous serum via the shunt pathway activated by cobra venom factor in the presence of appropriate dilutions of the test compound. Inhibition of the shunt pathway results in failure of lysis; (iv) Forssman Vasculitis Test--Here, the well known complement dependent lesion, Forssman vasculitis, is produced in guinea pigs by intradermal injection of rabbit anti-Forssman antiserum. The lesion is measured in terms of diameter, edema and hemorrhage and the extent to which a combined index of these is inhibited by prior intraperitoneal injection of the test compound at 200 mg/kg is then reported, unless otherwise stated; (v) Forssman Shock Test--Lethal shock is produced in guinea pigs by an i.v. injection of anti-Forssman antiserum and the harmonic mean death time of treated guinea pigs is compared with that of simultaneous controls; (vi) Complement Level Reduction Test--In this test, the above dosed guinea pigs, or others, are bled for serum and the complement level is determined in undiluted serum by the capillary tube method of U.S. Pat. No. 3,876,376 and compared to undosed control guinea pigs; (vii) Cap 50 Test--Here, appropriate amounts of the test compound are added to a pool of guinea pig serum in vitro, after which the undiluted serum capillary tube assay referred to above is run. The concentration of compound inhibiting 50% is reported;
(§2) **Activity in wells, a serial dilution assay; higher well number indicate
(§3) higher activity. The serial dilutions are twofold

Assay [2] deals with late components of human complement (C3-C9). Kind of assay: Test Code 035 (C3-C9 inhibitor; C-Late), lysis of EAC 142. The class given is cell-based. The note with it: serial twofold dilution assay; higher well number indicates higher activity.
Text: as §1, §2, §3

The subject of assay [3] is shunt pathway activated by cobra venom factor. The experiment in a line: Test Code 036 (C-Shunt inhibitor), lysis of human erythrocytes by cobra venom factor. The format is cell-based. The note with it: serial twofold dilution assay; higher well number indicates higher activity.
Text: as §1, §2, §3

Assay [4] has as its system complement system. The note with it: cited from earlier work.
Assay [5] relates to hereditary angioneurotic edema. Conditions: in vivo; cited from earlier work.
In assay [6] the test system is human serum complement. The note with it: in vitro and in vivo; cited from earlier work.

Structures can show the parent of a compound that is named as a salt.

T1 sequence (P09871 16-688): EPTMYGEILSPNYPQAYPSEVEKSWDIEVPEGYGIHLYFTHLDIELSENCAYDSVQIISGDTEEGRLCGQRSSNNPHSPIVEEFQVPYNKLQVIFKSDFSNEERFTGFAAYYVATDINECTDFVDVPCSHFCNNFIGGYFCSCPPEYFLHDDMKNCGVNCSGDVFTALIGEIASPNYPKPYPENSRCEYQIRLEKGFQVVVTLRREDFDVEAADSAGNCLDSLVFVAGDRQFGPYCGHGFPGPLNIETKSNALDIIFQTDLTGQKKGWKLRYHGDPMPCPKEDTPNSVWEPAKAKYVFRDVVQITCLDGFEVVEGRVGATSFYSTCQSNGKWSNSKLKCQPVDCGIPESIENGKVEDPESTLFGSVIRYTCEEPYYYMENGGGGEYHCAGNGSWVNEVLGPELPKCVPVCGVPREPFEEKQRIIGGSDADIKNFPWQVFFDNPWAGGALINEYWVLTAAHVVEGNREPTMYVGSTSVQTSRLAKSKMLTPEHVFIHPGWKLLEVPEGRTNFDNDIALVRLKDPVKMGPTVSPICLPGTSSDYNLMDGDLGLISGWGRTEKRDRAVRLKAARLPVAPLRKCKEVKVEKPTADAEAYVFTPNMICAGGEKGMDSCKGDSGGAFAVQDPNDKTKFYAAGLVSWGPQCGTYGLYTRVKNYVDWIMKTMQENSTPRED
T1 sequence (P00736 18-705 partner): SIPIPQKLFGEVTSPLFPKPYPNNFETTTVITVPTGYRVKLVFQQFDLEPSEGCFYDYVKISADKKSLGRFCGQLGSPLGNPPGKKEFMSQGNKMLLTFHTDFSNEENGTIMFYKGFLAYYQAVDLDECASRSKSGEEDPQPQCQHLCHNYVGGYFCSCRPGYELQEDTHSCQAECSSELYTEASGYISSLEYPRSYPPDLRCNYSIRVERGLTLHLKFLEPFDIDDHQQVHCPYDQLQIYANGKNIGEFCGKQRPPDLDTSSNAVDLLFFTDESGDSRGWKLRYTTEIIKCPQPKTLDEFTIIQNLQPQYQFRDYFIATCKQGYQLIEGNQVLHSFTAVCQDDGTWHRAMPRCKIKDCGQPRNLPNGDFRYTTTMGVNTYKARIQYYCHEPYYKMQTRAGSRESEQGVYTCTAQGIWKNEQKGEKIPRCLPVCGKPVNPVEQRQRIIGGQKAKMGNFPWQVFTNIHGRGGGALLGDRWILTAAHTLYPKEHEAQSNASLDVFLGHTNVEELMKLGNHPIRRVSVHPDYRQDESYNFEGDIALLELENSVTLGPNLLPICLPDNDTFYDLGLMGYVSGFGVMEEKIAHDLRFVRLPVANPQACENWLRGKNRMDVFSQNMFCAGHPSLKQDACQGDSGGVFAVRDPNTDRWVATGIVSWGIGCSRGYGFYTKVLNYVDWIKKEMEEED
T1 sequence (P02745 23-245 partner): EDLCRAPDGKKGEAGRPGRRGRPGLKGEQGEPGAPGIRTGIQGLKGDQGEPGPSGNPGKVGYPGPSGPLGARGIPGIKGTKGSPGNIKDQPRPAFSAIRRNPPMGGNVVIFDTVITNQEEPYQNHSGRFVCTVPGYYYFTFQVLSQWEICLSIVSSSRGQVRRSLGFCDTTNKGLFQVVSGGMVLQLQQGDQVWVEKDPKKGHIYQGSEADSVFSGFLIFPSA
T1 sequence (P02746 28-253 partner): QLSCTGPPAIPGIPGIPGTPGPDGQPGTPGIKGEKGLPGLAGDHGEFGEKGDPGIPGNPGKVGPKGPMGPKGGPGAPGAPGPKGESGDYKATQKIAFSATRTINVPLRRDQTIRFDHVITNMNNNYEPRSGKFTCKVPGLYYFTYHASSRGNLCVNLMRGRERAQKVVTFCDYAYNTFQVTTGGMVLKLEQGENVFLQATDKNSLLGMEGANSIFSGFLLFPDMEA
T1 sequence (P02747 29-245 partner): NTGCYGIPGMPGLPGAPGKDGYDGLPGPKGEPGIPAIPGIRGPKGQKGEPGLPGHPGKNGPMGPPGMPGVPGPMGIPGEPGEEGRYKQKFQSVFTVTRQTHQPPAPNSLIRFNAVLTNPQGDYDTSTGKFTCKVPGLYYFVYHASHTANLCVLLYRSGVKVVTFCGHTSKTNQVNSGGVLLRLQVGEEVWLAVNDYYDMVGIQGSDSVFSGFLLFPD

Take `O=S(=O)(O)OC[C@H]1O[C@@H](OC[C@H]2O[C@H](OC[C@H]3OC(OS(=O)(=O)O)[C@H](OS(=O)(=O)O)[C@@H](OS(=O)(=O)O)[C@@H]3OS(=O)(=O)O)[C@H](OS(=O)(=O)O)[C@@H](OS(=O)(=O)O)[C@H]2OS(=O)(=O)O)[C@H](OS(=O)(=O)O)[C@@H](OS(=O)(=O)O)[C@@H]1O[C@H]1O[C@H](COS(=O)(=O)O)[C@@H](O[C@H]2O[C@H](COS(=O)(=O)O)[C@@H](O[C@H]3O[C@H](COS(=O)(=O)O)[C@@H](O[C@H]4O[C@H](COS(=O)(=O)O)[C@@H](O[C@H]5O[C@H](COS(=O)(=O)O)[C@@H](O[C@H]6O[C@H](COS(=O)(=O)O)[C@@H](OS(=O)(=O)O)[C@H](OS(=O)(=O)O)[C@H]6OS(=O)(=O)O)[C@H](OS(=O)(=O)O)[C@H]5OS(=O)(=O)O)[C@H](OS(=O)(=O)O)[C@H]4OS(=O)(=O)O)[C@H](OS(=O)(=O)O)[C@H]3OS(=O)(=O)O)[C@H](OS(=O)(=O)O)[C@H]2OS(=O)(=O)O)[C@H](OS(=O)(=O)O)[C@H]1OS(=O)(=O)O` (stereo partly drawn) [(glc →1α,4)6 glc →1β,6 gal →1α,6 nonacosakis (H-sulfate), no] [(Glc 1α,4)6 glc 1β,6 gal 1α,6 glc nonacosakis (H-sulfate) nonacosasodium salt]: in assay [1], the “C1 026* Wells” value is given as “+9 Wells”. Moreover, the “C-Late 035* Wells” value in assay [2] was “+3 Wells”. Moreover, the “Shunt Inhibition 036* Wells” value in assay [3] is given as “+5 Wells”.

Take `Nc1ccc2cc(S(=O)(=O)[O-])cc(O)c2c1N=Nc1ccc(NC(=O)Nc2ccc(N=Nc3c(N)ccc4cc(S(=O)(=O)[O-])cc(O)c34)c(S(=O)(=O)[O-])c2)cc1S(=O)(=O)[O-].[Na+].[Na+].[Na+].[Na+]` [chlorazol fast pink, 3,3'-ureylenebis[6-(2-amino-8-hydroxy-6-sulfo-1-naphthylazo)benzenesulfonic acid], tetrasodium salt]: the anticomplementary effect entry in assay [4] is listed as “anticomplementary effect”.

For `NCCCCCC(=O)O` [epsilon-aminocaproic acid], the “success in the treatment of hereditary angioneurotic edema” value in assay [5] is reported as “used with success in the treatment of hereditary angioneurotic edema”.

On to `O=S(=O)(O)OC[C@H]1O[C@H](OC[C@H]2O[C@@H](OC[C@H]3O[C@H](OC[C@H]4O[C@H](OS(=O)(=O)O)[C@H](OS(=O)(=O)O)[C@@H](OS(=O)(=O)O)[C@@H]4OS(=O)(=O)O)[C@H](OS(=O)(=O)O)[C@@H](OS(=O)(=O)O)[C@H]3OS(=O)(=O)O)[C@H](OS(=O)(=O)O)[C@@H](OS(=O)(=O)O)[C@@H]2OS(=O)(=O)O)[C@H](OS(=O)(=O)O)[C@@H](OS(=O)(=O)O)[C@H]1OS(=O)(=O)O` [gal →1α,6 glc →1β,6 gal →1α,6 tetradecakis (H-sulfate), tetr] [Gal 1α,6 glc 1β,6 gal 1α,6 glc tetradecakis (H-sulfate), tetradecasalt with trimethylamine], for which the “C1 026* Wells” value in assay [1] is recorded as “+9 Wells”. Moreover, the “C-Late 035* Wells” value in assay [2] is reported as “+1 Wells”. Besides, the “Shunt Inhibition 036* Wells” value in assay [3] is on record as “+5 Wells”.

Consider `O=S(=O)(O)OC[C@H]1O[C@H](OC[C@H]2O[C@@H](OC[C@H]3O[C@H](OC[C@H]4O[C@H](OS(=O)(=O)O)[C@H](OS(=O)(=O)O)[C@@H](OS(=O)(=O)O)[C@@H]4OS(=O)(=O)O)[C@H](OS(=O)(=O)O)[C@@H](OS(=O)(=O)O)[C@H]3OS(=O)(=O)O)[C@H](OS(=O)(=O)O)[C@@H](OS(=O)(=O)O)[C@@H]2OS(=O)(=O)O)[C@H](OS(=O)(=O)O)[C@@H](OS(=O)(=O)O)[C@H]1OS(=O)(=O)O` [gal →1α,6 glc → 1β,6 gal →1α,6 glc tetradecakis (H-sulfate),] [Gal 1α,6 glc 1β,6 gal 1α,6 glc tetradecakis (H-sulfate), tetradecasodium salt], for which, in assay [1], the “C1 026* Wells” value is listed as “+9 Wells”. Moreover, in assay [2], the “C-Late 035* Wells” value is “+1 Wells”. For the same molecule, in assay [3], the “Shunt Inhibition 036* Wells” value is given as “+6 Wells”.

Take `NC[C@H]1CC[C@H](C(=O)O)CC1` [tranexamic acid]: in assay [5], the “success in the treatment of hereditary angioneurotic edema” value was “used with success in the treatment of hereditary angioneurotic edema”.

heparin: the anticomplementary effect entry in assay [4] was “anticomplementary effect”.

pentosan-polysulfoester: the “anticomplementary activity on human serum, as judged by the reduction in total hemolytic complement activity” value in assay [6] is “anticomplementary activity on human serum, both in vitro and in vivo”.

Source of the values: patent US4232150A, “Oligosaccharide precursors to substituted O-α-D and O-β-D-multigalactopyranosyl and glucopyranosyl 1→4 and 1→6 galactopyranosyl 1→6α-D-glucopyranoses” (American Cyanamid Company, priority 1979, dated 1980).
